Reference: PMC5418920 (The Open Medicinal Chemistry Journal, 2017)

Biological target: ALR2 (Rattus norvegicus, UniProt P07943)
Assay: ALR2 enzymatic inhibition, spectrophotometric NADPH oxidation at 340 nm
Type: biochemical

In the case of `COc1ccc(C2(C)CC3(CN(CC(=O)O)C(=O)CO3)c3cc(Br)ccc3O2)cc1` (centres unmarked) [Compound 4, 2-(6-Bromo-2-(4-methoxyphenyl)-2-methyl-5'-oxospiro[chroman-4,2'-morpholin]-4'-yl) acetic acid], the IC50 is reported as 4.97 µM and the “fold reduction in ARL2 inhibitory efficacy compared to parent 2” value (IC50 4.97 vs 0.58 μM) is reported as about 8 fold.

`CC1(C)CC2(CN(CC(=O)O)C(=O)O2)c2ccccc2O1` (centres unmarked) [Compound 5, 2-(2,2-Dimethyl-2'-oxospiro[chroman-4,5'-oxazolidin]-3'-yl) acetic acid] was tested, and the IC50 was 42.3 µM.

Work on `CC1(C)CC2(CN(CC(=O)O)C(=O)O2)c2cc(Br)ccc2O1` (centres unmarked) [Compound 6, 2-(6-Bromo-2,2-dimethyl-2'-oxospiro[chroman-4,5'-oxazolidin]-3'-yl) acetic acid] yielded an IC50 of 17.3 µM.

Work on `CC1(C)CC2(CN(CC(=O)O)C(=O)CO2)c2ccccc2O1` (centres unmarked) [Compound 7, 2-(2,2-Dimethyl-5'-oxospiro[chroman-4,2'-morpholin]-4'-yl) acetic acid] yielded an IC50 of 2 µM.

With `CC1(C)CC2(CN(CC(=O)O)CCO2)c2cc(Br)ccc2O1` (centres unmarked) [Compound 10, 2-(6-Bromo-2,2-dimethylspiro[chroman-4,2'-morpholin]-4'-yl) acetic acid] the IC50 was 4.17 µM.

In the case of `COc1cccc(COc2ccccc2C2(C)CN(CC(=O)O)C(=O)O2)c1` (centres unmarked) [Compound 11, 2-(5-(2-((3-Methoxybenzyl)oxy)phenyl)-5-methyl-2-oxooxazolidin-3-yl)acetic acid], the IC50 is reported as 4.13 µM.

Compound `COc1cc(COc2ccccc2C2(C)CN(CC(=O)O)C(=O)O2)cc(OC)c1OC` (centres unmarked) [Compound 13, 2-(5-Methyl-2-oxo-5-(2-((3,4,5-trimethoxybenzyl)oxy)phenyl)oxazolidin-3-yl)acetic acid] has an IC50 of 3.19 µM.
